Assay results from US20050170391A1, “TAUT1 transporters expressed in blood brain barrier cells” (Xenoport, Inc., priority 2004, published 2005).

Columns and labels:
[1] = molecular target: T1, TAUT1 (Homo sapiens, UniProt P31641); experiment: hTAUT1 direct uptake assay in HEK-TREx-TAUT1 cells (LC-MS-MS); assay type: cell-based; set-up: expressed in transfected cells; host or cells: HEK-TREx cells (HEK-TREx-TAUT1 inducible line); details: direct uptake into HEK-TREx-TAUT1 cells, +TET minus no TET; 15 min, room temperature
T1 sequence (P31641 1-620): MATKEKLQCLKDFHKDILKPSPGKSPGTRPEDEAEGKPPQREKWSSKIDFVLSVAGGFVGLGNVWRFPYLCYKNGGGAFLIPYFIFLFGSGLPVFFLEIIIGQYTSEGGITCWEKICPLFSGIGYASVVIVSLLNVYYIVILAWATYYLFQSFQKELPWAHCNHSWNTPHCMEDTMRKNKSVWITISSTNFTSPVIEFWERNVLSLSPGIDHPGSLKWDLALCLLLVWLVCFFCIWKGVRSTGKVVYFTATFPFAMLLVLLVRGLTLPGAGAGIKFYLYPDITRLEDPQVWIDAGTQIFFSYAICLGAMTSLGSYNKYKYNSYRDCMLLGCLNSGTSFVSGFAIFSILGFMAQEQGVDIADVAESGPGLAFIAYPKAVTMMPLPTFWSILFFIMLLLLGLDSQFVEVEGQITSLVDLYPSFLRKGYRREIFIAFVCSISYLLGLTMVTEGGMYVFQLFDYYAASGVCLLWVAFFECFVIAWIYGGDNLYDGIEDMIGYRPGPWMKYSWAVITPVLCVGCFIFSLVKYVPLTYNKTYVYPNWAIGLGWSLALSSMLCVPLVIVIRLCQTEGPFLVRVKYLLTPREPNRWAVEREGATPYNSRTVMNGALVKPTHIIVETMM
Description: A modified direct uptake assay was developed to determine the ability of test compounds to be transported into HEK-TREx cells induced to over-express hTAUT. Four concentrations (bracketing the affinity as measured by competition assays) per compound were routinely tested. Non-specific uptake was determined by measuring the uptake into cells not induced to express the transporter (“no tet”).
Typically, four concentrations bracketing the IC50 were tested. The highest test concentration for each compound was made in an eppendorf tube and diluted into HBSS. The samples were robustly vortexed and centrifuged for 10 minutes at 13,200 rpm to spin down any precipitate. […] Three additional 2-fold dilutions were made in the subsequent rows (B-D or […]) in HBSS.
An internal standard of 50 μM propranolol in 50:50 ethanol:water was also prepared. To prepare standard curves, several concentrations of the test compounds were diluted into HEK cell extract (prepared from tet-treated, mock-incubated and extracted cells as described below) with a final internal standard concentration of 5 μM. Standards of 10, 5, 1, 0.5, 0.1, 0.05, 0.01 and 0.005 μM were routinely run for each test compound.
HEK-TREx-hTAUT cells were plated in 96-well plates and treated with plus (columns 1-3 and 7-9) or without tetracycline (or a tetracycline analog; columns 4-6 and 10-12). The cells were removed from the incubator, and the growth media was removed from the cells. The cells were washed twice in room temperature HBSS (100 μl/well/wash) using a 96-well plate washer (Bio Tek ELX405). Alternatively, cells were washed manually with equivalent volumes using a multichannel pipettor. Immediately before the assay was begun, the final 100 μl wash solution was removed from the cells. The assay was started by using a 96-well pipettor to add 50 μl from the “compound” plate to each well of the HEK-TREx-hTAUT cell plate. The plate was incubated at room temperature for 15 minutes.
After the final wash, as much of the wash buffer as possible was removed by aspirating the wells with a probe that reached the bottom of the wells. (Residual salts from the wash buffer can adversely affect the LC-MS-MS by disrupting the LC method or by suppressing the MS signal.) 150 μl of a 50:50 ethanol:water solution was added to each well to lyse the cells and extract the test compound. The plate was covered and allowed to sit for 20 minutes at room temperature to ensure cell lysis. (The 50% ethanol solution is the generic solution for extraction. For compounds soluble in water or other solvents compatible with the LC-MS-MS, such solutions can be tried to determine they interfere with the LC-MS-MS analysis. If the organic solvent concentration is too high (>50%), it may be detrimental to the LC run).
120 μl of the cell extract was removed from each well and transferred to a fresh 96-well v-bottom polypropylene plate. This plate was covered with an adherent cover (top seal) and centrifuged for 15 minutes at 5,700 rpm (Allegra 25R centrifuge) at 4° C. to pellet any cell precipitate. 10 μl of the 50 μM propranolol solution was added to each well of a fresh 96-well plate (a plate amenable for sampling in the LC-MS-MS). 90 μl of the supernatant from the centrifuged cell extract was removed and transferred to the plate containing the 10 μl of propranolol (using the Cybi-well 96-well pipettor). The sample plate with a bubble lid suitable for use with the LC-MS-MS and placed on a plate shaker for 5 to 10 minutes to mix the sample and the propranolol. The samples were submitted for LC-MS-MS analysis. The levels of intracellular compounds were determined by converting the peak area to concentration by extrapolating from the standard curve for each compound. Uptake was expressed as μM/well.
While the uptake values in these experiments were expressed as “μM/well”, the values can be easily converted to “pmol/well” or “pmol/well/unit time”. All of the samples were extracted with 150 μl of extraction buffer.

[2] = molecular target: T2, mouse homolog of the transporter (TAUT1) (Mus musculus, UniProt O35316); details: literature IC50, mouse homolog of the transporter; read-out: Literature Km or IC50; cited from earlier work
T2 sequence (O35316 1-621): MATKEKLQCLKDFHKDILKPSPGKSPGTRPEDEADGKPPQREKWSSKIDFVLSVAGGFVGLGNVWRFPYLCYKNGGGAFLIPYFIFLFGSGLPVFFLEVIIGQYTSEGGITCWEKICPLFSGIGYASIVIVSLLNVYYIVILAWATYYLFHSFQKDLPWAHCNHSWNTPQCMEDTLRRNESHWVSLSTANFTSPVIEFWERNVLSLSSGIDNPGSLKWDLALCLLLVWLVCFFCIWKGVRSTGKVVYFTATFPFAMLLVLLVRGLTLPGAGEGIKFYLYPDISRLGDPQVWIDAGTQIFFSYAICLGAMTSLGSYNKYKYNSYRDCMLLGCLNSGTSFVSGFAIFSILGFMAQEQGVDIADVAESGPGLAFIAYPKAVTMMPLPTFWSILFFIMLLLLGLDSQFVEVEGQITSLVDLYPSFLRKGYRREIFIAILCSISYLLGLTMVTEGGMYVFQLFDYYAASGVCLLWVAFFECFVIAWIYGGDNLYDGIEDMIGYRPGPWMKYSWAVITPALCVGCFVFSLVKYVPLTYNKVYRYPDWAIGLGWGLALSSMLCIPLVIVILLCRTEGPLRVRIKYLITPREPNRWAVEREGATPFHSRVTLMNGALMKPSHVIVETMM

Work on NCC(CC(=O)O)c1ccc(Cl)cc1 (stereo not shown) [R,S-Baclofen] yielded a Km [1] of 1700 µM, a Vmax [1] of 5.4 μM/well and a pKm [1] of 2.9.
For N=C(N)NCCC(=O)O [GPA], the IC50 [2] is given as 120 µM, the Km [1] is given as 120 µM and the Vmax [1] is given as 6.4 μM/well. It also gave a pKm [1] of 4.0.
In the case of O=C(O)Cc1c[nH]cn1 [IAA, 4-imidazole acetic acid], the Vmax [1] is reported as 6.1 μM/well.
In the case of NCCCC(=O)O [GABA, γ-aminobutyric acid], the IC50 [2] is given as 500 µM and the Vmax [1] is given as 12 μM/well.
